Legend:
[1] = Volatility of perfuming compounds (Tables 4 to 10), with top/middle/bottom note type; type: physicochemical
Experimental: In some aspects, the first perfume accord comprises perfuming compounds having a volatility ranging from 70,000 to 100 μg/l in air. In some aspects, perfuming compounds having a volatility ranging from 70,000 to 100 μg/l in air are referred to as “top notes”.
In some aspects, the second perfume accord comprises perfuming compounds having a volatility ranging from 99 to 50 μg/l in air. In some aspects, perfuming compounds having a volatility ranging from 99 to 50 μg/l in air are referred to as “middle notes”.
In some aspects, the third perfume accord comprises perfuming compounds having a volatility ranging from 49 to 0.1 μg/l in air. In some aspects, perfuming compounds having a volatility ranging from 49 to 0.1 μg/l in air are referred to as “bottom notes”.
Tables 4 to 10 describe top, middle and bottom note perfuming compounds for watery, green, fruity, citrus, sweet, gourmand and woody notes respectively.

[2] = Odor threshold and odor value of perfuming compounds (Tables 4 to 10)
[3] = note type (Top/Middle/Bottom) by volatility, perfuming compounds having a green note
[4] = perfuming compounds having a green note
[5] = Table 10, perfuming compounds having a woody note, note type by volatility
[6] = Table 4, watery note, top, middle or bottom note
[7] = Table 7, citrus note, top, middle or bottom note
[8] = Table 4, watery note, equals volatility divided by odor threshold
[9] = Table 7, citrus note, equals volatility divided by odor threshold
[10] = Table 6, perfuming compounds having a fruity note
[11] = Table 6, perfuming compounds having a fruity note, note type by volatility

CC(C)[C@@H]1CC[C@@H](C)CC1=NO
Type [1, 3]: Bottom
Volatility (μg/l air) [1, 4]: 22.29 μg/l air
Odor Threshold (μg/l air) [2, 4]: 5.52E−05 μg/l air

C=C/C=C/C=C\CCCCC
Type [1, 3]: Top
Volatility (μg/l air) [1, 4]: 1247.28 μg/l air
Odor Threshold (μg/l air) [2, 4]: 3.76E−05 μg/l air

C[C@@H]1CC[C@H]2[C@H](C)C(=O)O[C@@H]2C1
Volatility ([1]; Table 9, gourmand note): 74.03 μg/l air
Type ([1]; Table 9, perfuming compounds having a gourmand note, note type by volatility): Middle
Odor Threshold ([2]; Table 9, gourmand note): 3.46E−05 μg/l air

CC1=CCC(/C=C/C(C)C(C)O)C1(C)C (stereo not drawn)
Type [1, 5]: Bottom
Volatility ([1]; Table 10, woody note): 20.41 μg/l air
Odor Threshold ([2]; Table 10, woody note): 9.56E−05 μg/l air

CCCCC[C@@H]1C(=O)CC[C@@H]1CC(=O)OC
Type [1, 5]: Bottom
Volatility ([1]; Table 10, woody note): 1.71 μg/l air
Odor Threshold ([2]; Table 10, woody note): 2.82E−04 μg/l air

C[C@@H]1CC[C@H]2C(C)(C)[C@H]3C[C@@]12C[C@@H]1OC(C)(C)O[C@@]13C
Type [1, 5]: Bottom
Volatility ([1]; Table 10, woody note): 0.00 μg/l air
Odor Threshold ([2]; Table 10, woody note): 3.90E−06 μg/l air

CC/C(=C\C[C@H]1CC=C(C)C1(C)C)CO
Type [1, 5]: Bottom
Volatility ([1]; Table 10, woody note): 2.75 μg/l air
Odor Threshold ([2]; Table 10, woody note): 2.41E−05 μg/l air

COC(C)(C)[C@H]1CC=C(C)CC1
Type [1, 3]: Top
Volatility (μg/l air) [1, 4]: 993.39 μg/l air
Odor Threshold (μg/l air) [2, 4]: 1.99E−01 μg/l air

3-(3,3-dimethyl-2,3-dihydro-1H-inden-5-yl)propanal (A) + 3-(1,1-dimethyl-2,3-dihydro-1H-inden-4-yl)propanal (B) + 3-(1,1-dimethyl-2,3-dihydro-1H-inden-5-yl)propanal (C)
Volatility (μg/l air) ([1]; Table 4, watery note): 13.68 μg/l air
Type [1, 6]: bottom (perfuming compounds having a volatility ranging from 49 to 0.1 μg/l in air are referred to as “bottom notes”)
Volatility (μg/l air) ([1]; Table 7, citrus note): 13.68 μg/l air
Type [1, 7]: Bottom
Odor Threshold (μg/l air) ([2]; Table 4, watery note): 4.00E−03 μg/l air
Odor Value [2, 8]: 3.42E+03
Odor Threshold (μg/l air) ([2]; Table 7, citrus note): 4.00E−03 μg/l air
Odor Value [2, 9]: 3.42E+03

3-(3,3-dimethyl-2,3-dihydro-1H-inden-5-yl)propanal (A) + 3-(1,1-dimethyl-2,3-dihydro-1H-inden-5-yl)propanal (B)
Volatility (μg/l air) ([1]; Table 4, watery note): 13.73 μg/l air
Type [1, 6]: bottom (perfuming compounds having a volatility ranging from 49 to 0.1 μg/l in air are referred to as “bottom notes”)
Odor Threshold (μg/l air) ([2]; Table 4, watery note): 1.32E−05 μg/l air
Odor Value [2, 8]: 1.04E+06

3-(4-ETHYLPHENYL)-2,2-DIMETHYLPROPANAL (A) + 3-(2-ETHYLPHENYL)-2,2-DIMETHYLPROPANAL (B)
Volatility (μg/l air) ([1]; Table 4, watery note): 48.69 μg/l air
Type [1, 6]: bottom (perfuming compounds having a volatility ranging from 49 to 0.1 μg/l in air are referred to as “bottom notes”)
Odor Threshold (μg/l air) ([2]; Table 4, watery note): 5.33E−03 μg/l air
Odor Value [2, 8]: 9.14E+03

8(9)-METHOXY-TRICYCLO[5.2.1.0(2,6)]DECANE-3(4)-CARBALDEHYDE
Volatility (μg/l air) ([1]; Table 4, watery note): 5.87 μg/l air
Type [1, 6]: bottom (perfuming compounds having a volatility ranging from 49 to 0.1 μg/l in air are referred to as “bottom notes”)
Volatility [1, 10]: 5.87 μg/l air
Type [1, 11]: Bottom
Volatility (μg/l air) ([1]; Table 7, citrus note): 5.87 μg/l air
Type [1, 7]: Bottom
Odor Threshold (μg/l air) ([2]; Table 4, watery note): 4.02E−05 μg/l air
Odor Value [2, 8]: 1.46E+05
Odor Threshold [2, 10]: 4.02E−05 μg/l air
Odor Value [2, 10]: 1.46E+05
Odor Threshold (μg/l air) ([2]; Table 7, citrus note): 4.02E−05 μg/l air
Odor Value [2, 9]: 1.46E+05

9-ETHYLIDENE-3-OXATRICYCLO[6.2.1.0(2,7)]UNDECAN-4-ONE (A) + 10-ETHYLIDENE-3-OXATRICYCLO[6.2.1.0(2,7)] . . . (B)
Volatility (μg/l air) ([1]; Table 7, citrus note): 2.10 μg/l air
Type [1, 7]: Bottom
Odor Threshold (μg/l air) ([2]; Table 7, citrus note): 1.42E−04 μg/l air
Odor Value [2, 9]: 1.48E+04

10-undecenal (A) + (9E)-9-undecenal (B) + (9Z)-9-undecenal (C)
Volatility (μg/l air) ([1]; Table 4, watery note): 131.95 μg/l air
Type [1, 6]: TOP (perfuming compounds having a volatility ranging from 70,000 to 100 μg/l in air are referred to as “top notes”)
Odor Threshold (μg/l air) ([2]; Table 4, watery note): 3.77E−05 μg/l air
Odor Value [2, 8]: 3.50E+06

CC(C)=CCCC1=CCC(C)(C=O)CC1 (racemic)
Volatility (μg/l air) ([1]; Table 4, watery note): 26.54 μg/l air
Type [1, 6]: bottom (perfuming compounds having a volatility ranging from 49 to 0.1 μg/l in air are referred to as “bottom notes”)
Odor Threshold (μg/l air) ([2]; Table 4, watery note): 2.72E−02 μg/l air
Odor Value [2, 8]: 9.76E+02

Cc1ccc2c(c1)CC(C)(CO)C2 (racemic)
Volatility (μg/l air) ([1]; Table 4, watery note): 4.86 μg/l air
Type [1, 6]: bottom (perfuming compounds having a volatility ranging from 49 to 0.1 μg/l in air are referred to as “bottom notes”)
Odor Threshold (μg/l air) ([2]; Table 4, watery note): 1.28E−04 μg/l air
Odor Value [2, 8]: 3.79E+04

CC(C)=CCCC(C)C=O (racemic)
Volatility (μg/l air) ([1]; Table 4, watery note): 1889.68 μg/l air
Type [1, 6]: TOP (perfuming compounds having a volatility ranging from 70,000 to 100 μg/l in air are referred to as “top notes”)
Volatility [1, 10]: 1889.68 μg/l air
Type [1, 11]: TOP (perfuming compounds having a volatility ranging from 70,000 to 100 μg/l in air are referred to as “top notes”)
Odor Threshold (μg/l air) ([2]; Table 4, watery note): 2.11E−04 μg/l air
Odor Value [2, 8]: 8.96E+06

CC(C)=CCCC(C)CCCC(C)C=O (racemic)
Volatility (μg/l air) ([1]; Table 4, watery note): 18.23 μg/l air
Type [1, 6]: bottom (perfuming compounds having a volatility ranging from 49 to 0.1 μg/l in air are referred to as “bottom notes”)
Odor Threshold (μg/l air) ([2]; Table 4, watery note): 1.59E−02 μg/l air
Odor Value [2, 8]: 1.15E+03
